Experimental data reported in patent US12358915B2, “METTL3 inhibitory compounds” (STORM THERAPEUTICS LTD., priority 2019, dated 2025).
Read-outs that look alike come from different tables or passages of the source.

Target: T1, METTL3/14 (Homo sapiens, UniProt Q86U44)
T1 construct: The enzyme used was full-length his-tagged METTL3; His; made in house
Test: METTL3/14 methyltransferase assay (METTL3_14 RFMS, RapidFire mass spectrometry);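 further: recombinant His-tagged METTL3 with FLAG-tagged METTL14 from baculovirus, SAH product quantified by mass spectrometry against isotope-labelled internal standards, 60 min at room temperature, scaled between no-RNA and DMSO-only wells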
Type: biochemical

[1] = 5 nM METTL3/14, 0.2 μM RNA substrate, 0.5 μM SAM, lower limit of the assay IC50=5 nM, Compounds 63-265, read-out: METTL3_14 RFMS IC50
[2] = 5 nM METTL3/14, 0.2 μM RNA substrate, 0.5 μM SAM, lower limit of the assay IC50=5 nM, Compounds 1-62, read-out: METTL3_14 RFMS IC50
[3] = 5 nM METTL3/14, 0.2 μM RNA substrate, 0.5 μM SAM, lower limit of the assay IC50=5 nM, Compounds 266-351, read-out: METTL3_14 RFMS IC50

T1 sequence (Q86U44 whole entry): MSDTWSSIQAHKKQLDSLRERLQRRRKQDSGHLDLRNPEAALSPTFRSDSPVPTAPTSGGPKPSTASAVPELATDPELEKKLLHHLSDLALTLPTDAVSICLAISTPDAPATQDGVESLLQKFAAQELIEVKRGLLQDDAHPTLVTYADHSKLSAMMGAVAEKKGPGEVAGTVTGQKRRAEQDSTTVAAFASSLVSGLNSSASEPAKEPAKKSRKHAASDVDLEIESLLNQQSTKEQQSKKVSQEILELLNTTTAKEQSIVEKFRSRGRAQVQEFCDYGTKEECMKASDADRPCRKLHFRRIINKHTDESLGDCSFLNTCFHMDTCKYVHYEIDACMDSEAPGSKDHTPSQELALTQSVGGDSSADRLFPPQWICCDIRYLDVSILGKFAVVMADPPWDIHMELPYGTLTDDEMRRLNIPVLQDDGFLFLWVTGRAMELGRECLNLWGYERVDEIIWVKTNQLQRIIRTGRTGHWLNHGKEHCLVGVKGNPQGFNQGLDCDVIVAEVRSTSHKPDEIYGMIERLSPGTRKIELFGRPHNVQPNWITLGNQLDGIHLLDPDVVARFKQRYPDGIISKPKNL
T1 sequence (Q9HCE5 whole entry partner): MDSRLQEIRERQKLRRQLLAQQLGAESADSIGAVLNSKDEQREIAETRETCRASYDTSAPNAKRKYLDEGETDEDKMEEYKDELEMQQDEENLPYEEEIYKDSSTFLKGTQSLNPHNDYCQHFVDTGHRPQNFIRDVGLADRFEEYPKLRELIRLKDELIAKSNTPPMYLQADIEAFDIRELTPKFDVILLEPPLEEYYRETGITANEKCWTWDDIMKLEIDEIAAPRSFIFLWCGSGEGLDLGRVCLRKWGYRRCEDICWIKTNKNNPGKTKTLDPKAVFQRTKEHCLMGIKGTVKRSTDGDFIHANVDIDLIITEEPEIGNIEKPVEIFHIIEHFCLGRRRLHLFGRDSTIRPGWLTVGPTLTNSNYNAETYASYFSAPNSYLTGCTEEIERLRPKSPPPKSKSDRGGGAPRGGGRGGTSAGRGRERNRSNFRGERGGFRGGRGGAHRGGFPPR

IC50 [1]	Compound	also measured
206 nM	O=C(NCc1cn2cc(CN3CCN(c4ccccc4)CC3)ccc2n1)c1cc(=O)n2ccccc2n1 [Compound 130, 4-oxo-N-({6-[(4-phenylpiperazin-1-yl)methyl]imidazo [1,2-a]pyridin-2-yl}methyl)-4H-pyrido[1,2-a] pyrimidine-2-carboxamide]	
	O=C(NCc1cn2cc(Br)ccc2n1)c1cc(=O)n2ccccc2n1 [Compound 23, N-({6-bromoimidazo[1,2-a]pyridin-2-yl}methyl)-4-oxo-4H-pyrido[1,2-a]pyrimidine-2-carboxamide]	IC50 [2]: 1790 nM
578 nM	O=C(NCc1cn2cc(CNCC(F)F)ccc2n1)c1cc(=O)n2ccccc2n1 [Compound 119, N-[(6-{[(2,2-difluoroethyl)amino]methyl}imidazo[1,2-a]pyridin-2-yl)methyl]-4-oxo-4H-pyrido[1,2-a] pyrimidine-2-carboxamide]	
61.1 nM	CC(C)(F)CNCc1ccc2nc(CNC(=O)c3cc(=O)n4ccccc4n3)cn2c1 [Compound 202, N-[(6-{[(2-fluoro-2-methylpropyl)amino]methyl}imidazo[1,2-a]pyridin-2-yl)methyl]-4-oxo-4H-pyrido[1,2-a] pyrimidine-2-carboxamide]	
61.5 nM	CN(CCC1CC1)Cc1ccc2nc(CNC(=O)c3cc(=O)n4ccccc4n3)cn2c1 [Compound 204, N-[(6-{[(2-cyclopropylethyl) (methyl)amino]methyl}imidazo [1,2-a]pyridin-2-yl)methyl]-4-oxo-4H-pyrido [1,2-a]pyrimidine-2-carboxamide]	
	CC(O)c1ccc2nc(CNC(=O)c3cc(=O)n4ccccc4n3)cn2c1 (stereo not drawn) [Compound 57, N-{[6-(1-hydroxyethyl)imidazo[1,2-a]pyridin-2-yl]methyl}-oxo-4H-pyrido[1,2-a]pyrimidine-2-carboxamide]	IC50 [2]: 702 nM
27.7 nM	O=C(NCc1cn2cc(CNCCCC(F)(F)F)ccc2n1)c1cc(=O)n2ccccc2n1 [Compound 81, 4-oxo-N-[(6-{[(4,4,4-trifluorobutyl)amino]methyl}imidazo[1,2-a]pyridin-2-yl)methyl]-4H-pyrido[1,2-a]pyrimidine-2-carboxamide]	
	Cn1cnc(CNc2ccc3nc(CNC(=O)c4cccc5[nH]ncc45)cn3c2)c1 [Compound 33, N-[(6-{[(1-methyl-1H-imidazol-4-yl)methyl]amino}imidazo[1,2a]pyridin-2-yl)methyl]-1H-indazole-4-carboxamide]	IC50 [2]: 5870 nM
	O=C(NCc1cn2cc(CNCC(F)(F)F)ccc2n1)c1cccc2[nH]ncc12 [Compound 46, N-[(6-{[(2,2,2-trifluoroethyl)amino]methyl}imidazo[1,2-a]pyridin-yl)methyl]-1H-indazole-4-carboxamide]	IC50 [2]: 2210 nM
	CC(C)(C#N)CNCc1ccc2nc(CNC(=O)c3cc(=O)n4ccccc4n3)cn2c1 [Compound 275, N-[[6-[[(2-cyano-2-methyl-propyl)amino]methyl]imidazo[1,2-a]pyridin-2-yl]methyl]-4-oxo-pyrido[1,2-a]pyrimidine-2-carboxamide]	IC50 [3]: 1240 nM
	Cc1cccn2cc(CNC(=O)c3cc(=O)n4ccccc4n3)nc12 [Compound 27, N-({8-methylimidazo[1,2-a]pyridin-2-yl}methyl)-4-oxo-4H-pyrido[1,2-a]pyrimidine-2-carboxamide]	IC50 [2]: 6610 nM
16.5 nM	O=C(NCc1cn2cc(CNCc3ccc(F)cc3)ccc2n1)c1cc(=O)n2ccccc2n1 [Compound 80, N-{[6-({[(4-fluorophenyl)methyl]amino}methyl)imidazo [1,2-a]pyridin-2-yl]methyl}-4-oxo-4H-pyrido[1,2-a]pyrimidine-2-carboxamide]	
1080 nM	NC(Cc1ccccc1)Cc1ccc2nc(CNC(=O)c3cc(=O)n4ccccc4n3)cn2c1 (stereo not drawn) [Compound 247, N-{[6-(2-amino-3-phenylpropyl)imidazo[1,2-a]pyridin-2-yl]methyl}-4-oxo-4H-pyrido[1,2-a]pyrimidine-2-carboxamide]	
43.5 nM	O=C(NCc1cn2cc(CNC3CCC(F)(F)CC3)ccc2n1)c1cc(=O)n2ccccc2n1 [Compound 115, N-[(6-{[(4,4-difluoro-cyclohexyl)amino]methyl}imidazo [1,2-a]pyridin-2-yl)methyl]-4-oxo-4H-pyrido [1,2-a]pyrimidine-2-carboxamide]	
7.9 nM	CC1(C)CCN(Cc2ccc3nc(Cn4cc(-c5cc(Br)cc6[nH]ncc56)nn4)cn3c2)CC1 [Example 227, 6-bromo-4-[1-({6-[(4,4-dimethylpiperidin-1-yl)methyl]imidazo[1,2-a]pyridin-2-yl}methyl)-1H-1,2,3-triazol-4-yl]-1H-indazole]	
1390 nM	C[C@@H]1COC[C@H](c2ccc3nc(CNC(=O)c4cc(=O)n5ccccc5n4)cn3c2)N1 [Example 233, N-({6-[(3S,5R)-5-methylmorpholin-3-yl]imidazo[1,2-a]pyridin-2-yl}methyl)-4-oxo-4H-pyrido[1,2-a]pyrimidine-2-carboxamide]	

IC50 [1]	Compound	also measured
293 nM	O=C(NCc1cn2cc(CNCC3CCCCC3)ccc2n1)c1cc(=O)c2ccc(Cl)cc2o1 [Compound 171, 7-chloro-N-[(6-{[(cyclohexylmethyl)amino]methyl}imidazo[1,2-a]pyridin-2-yl)methyl]-4-oxo-4H-chromene-2-carboxamide]	
1180 nM	O=C(NCc1cn2cc(CNCCC3CCCCO3)ccc2n1)c1cc(=O)n2ccccc2n1 (stereo not drawn) [Compound 154, N-{[6-({[2-(oxan-2-yl)ethyl]amino}methyl)imidazo [1,2-a]pyridin-2-yl]methyl}-4-oxo-4H-pyrido[1,2-a] pyrimidine-2-carboxamide]	
74.4 nM	O=C(NCc1cn2cc(CNCC3CCCO3)ccc2n1)c1cc(=O)n2ccccc2n1 (stereo not drawn) [Compound 95, 4-oxo-N-{[6-({[(oxolan-2-yl)methyl]amino}methyl)imidazo [1,2-a]pyridin-2-yl]methyl}-4H-pyrido[1,2-a]pyrimidine-2-carboxamide]	
299 nM	NCCc1ccc2nc(CNC(=O)c3cc(=O)n4ccccc4n3)cn2c1 [Compound 63, N-{[6-(2-aminoethyl)imidazo[1,2-a]pyridin-2-yl]methyl}-4-oxo-4H-pyrido[1,2-a]pyrimidine-2-carboxamide]	
	CC1CNC(c2ccc3nc(CNC(=O)c4cc(=O)n5ccccc5n4)cn3c2)CO1 (stereo not drawn) [Example 331]	IC50 [3]: 3440 nM
241 nM	O=C(NCc1cn2cc(CNCC3COCCO3)ccc2n1)c1cc(=O)n2ccccc2n1 (stereo not drawn) [Compound 108, N-{[6-({[(1,4-dioxan-2-yl)methyl]amino}methyl)imidazo [1,2-a]pyridin-2-yl]methyl}-4-oxo-4H-pyrido[1,2-a] pyrimidine-2-carboxamide]	
214 nM	O=C(NCc1cn2cc(CNCC3CCCCC3)ccc2n1)c1cc(=O)n2c(n1)CCCC2 [Compound 175, N-[(6-{[(cyclohexylmethyl)amino]methyl}imidazo[1,2-a]pyridin-2-yl)methyl]-4-oxo-4H,6H,7H,8H, 9H-pyrido[1,2-a]pyrimidine-2-carboxamide]	
59.7 nM	O=C(NCc1cn2cc(CN3CCC(F)CC3)ccc2n1)c1cc(=O)n2ccccc2n1 [Compound 144, N-({6-[(4-fluoropiperidin-1-yl)methyl]imidazo[1,2-a]pyridin-2-yl}methyl)-4-oxo-4H-pyrido[1,2-a]pyrimidine-2-carboxamide]	
143 nM	O=C(NCc1cn2cc(CNCCc3cccnc3)ccc2n1)c1cc(=O)n2ccccc2n1 [Compound 107, 4-oxo-N-{[6-({[2-(pyridin-3-yl)ethyl]amino}methyl)imidazo[1,2-a]pyridin-2-yl]methyl}-4H-pyrido[1,2-a]pyrimidine-2-carboxamide]	
57.6 nM	O=C(NCc1cn2cc(CNCC3(F)CCCCC3)ccc2n1)c1cc(=O)n2ccccc2n1 [Compound 91, N-{[6-({[(1-fluorocyclohexyl)methyl]amino}methyl)imidazo [1,2-a]pyridin-2-yl]methyl}-4-oxo-4H-pyrido[1,2-a]pyrimidine-2-carboxamide]	
	CC1(C)CC(CNCc2ccc3nc(CNC(=O)c4cc(=O)n5ccccc5n4)cn3c2)C1 [Compound 291, N-[[6-[[(3,3-dimethylcyclobutyl)methylamino]methyl]imidazo[1,2-a]pyridin-2-yl]methyl]-4-oxo-pyrido[1,2-a]pyrimidine-2-carboxamide]	IC50 [3]: 62.2 nM
5090 nM	O=C(NCc1ccccc1)c1ccc2nc(CNC(=O)c3cc(=O)n4ccccc4n3)cn2c1 [Compound 68, N-benzyl-2-[({4-oxo-4H-pyrido[1,2-a]pyrimidin-2-yl}formamido)methyl]imidazo [1,2-a]pyridine-6-carboxamide]	
	Cc1ccc2nc(CNC(=O)c3cc(=O)n4ccccc4n3)cn2c1 [Compound 15, N-({6-methylimidazo[1,2-a]pyridin-2-yl}methyl)-4-oxo-4H-pyrido[1,2-a]pyrimidine-2-carboxamide]	IC50 [2]: 536 nM; IC50 (primary enzyme screen, inhibition of RNA methyltransferase activity, lower limit of the assay is IC50=5 nM, read-out: IC50): 520 nM
354 nM	O=C(NCc1cn2cc(CNCC3CCOCC3)ccc2n1)c1cc(=O)n2ccccc2n1 [Compound 82, N-{[6-({[(oxan-4-yl)methyl]amino}methyl)imidazo[1,2-a]pyridin-2-yl]methyl}-4-oxo-4H-pyrido[1,2-a] pyrimidine-2-carboxamide]	
	O=C(NCc1cn2cc(CNC34CC(C3)C4)ccc2n1)c1cc(=O)n2ccccc2n1 [Compound 116, N-({6-[({bicyclo[1.1.1]pentan-1-yl}amino)methyl]imidazo[1,2-a]pyridin-2-yl}methyl)-4-oxo-4H-pyrido[1,2-a] pyrimidine-2-carboxamide]	IC50 (read-out: METTL3_14 RFMS IC50): 280 nM
80.1 nM	O=C(NCc1cn2cc(CNCCC3CCCC3)ccc2n1)c1cc(=O)n2ccccc2n1 [Compound 163, N-[(6-{[(2-cyclopentylethyl)amino]methyl}imidazo[1,2-a]pyridin-2-yl)methyl]-4-oxo-4H-pyrido[1,2-a]pyrimidine-2-carboxamide]	
